# Results: patent US20090176817A1, “Method of Treatment of Diarrhea-Predominant Irritable Bowel Syndrome in a Subject” (priority 2005, published 2009)
# Experiments:
# CYP3A4 = details: hepatocytes
# clinical [1] = details: human, in vivo, iv
# Method: The pharmacokinetics of intravenously administered cilansetron have also been evaluated in several studies. In a randomized, double-blind, placebo controlled, rising dose, crossover study in 24 male subjects, aged 23-37 years, the single-dose pharmacokinetics of IV cilansetron were evaluated over a 4 mg to 16 mg dose range. Subjects received, at intervals of 1 week, single doses of 4, 8, and 16 mg IV cilansetron in ascending order and a randomized placebo. Infusion times ranged from 15-30 minutes. All doses were administered under fasted conditions.
# In a randomized, double-blind, placebo controlled, rising dose, crossover study, 24 male subjects (aged 23-37 years) received single doses of 4, 8, and 16 mg IV cilansetron in ascending order and a randomized placebo, infused over 15-30 minutes. All doses were administered under fasted conditions. FIG. 14 and FIG. 15 present box plots of cilansetron AUC(0-inf) and dose-normalized AUC(0-inf) values (normalized to a 1 mg dose), respectively, and Table 2.7.2.3.13 presents descriptive statistics for the results of statistical pairwise comparisons of dose-normalized parameters between doses.
# [2] = tested on: non-constipated IBS subjects; assay: Study S241.2.113: Phase II dose-ranging efficacy; type: in vivo, human
# Method: Study S241.2.113 was a Phase II, double-blind, placebo-controlled, randomized, multi-center, parallel-group, dose-ranging study to investigate the efficacy and safety of cilansetron in nonconstipated subjects with irritable bowel syndrome. The study was conducted in 55 study centers in Canada, France, Austria, Germany, United Kingdom, Italy, Belgium, and The Netherlands. A total of at least 88 subjects per treatment group evaluable for efficacy were planned, in total 440 to complete the study; 776 subjects were screened; 485 subjects were randomized (479 in the safety sample). Diagnosis and main criteria for inclusion were IBS subjects satisfying the Rome criteria (1992) and minimum abdominal pain/discomfort, stool frequency and consistency determined during the run-in period.
# Subjects were treated with cilansetron 1 mg, 2 mg, 4 mg and 16 mg tablets given orally TID or matching placebo tablets given orally TID for 12 weeks.
# The primary efficacy parameter was the weekly global question concerning adequate relief of IBS symptoms (abdominal pain/discomfort, abnormal bowel habits). A responder is a subject who responded “Yes” at least 50% of the time after randomization, with a minimum treatment duration of four weeks.
# [3] = tested on: diarrhea-predominant IBS subjects; assay: Study S241.3.009: IBS-QOL; type: in vivo, human; parameters: IBS-QOL interference with activity, treatment difference / IBS-QOL food avoidance, treatment difference / IBS-QOL dysphoria, treatment difference / IBS-QOL body image, treatment difference / IBS-QOL health worry, treatment difference / IBS-QOL social reaction, treatment difference / IBS-QOL sexual, treatment difference / IBS-QOL relationships, treatment difference: scale not given here; details: for Percentage of Subjects Who Worsened from Baseline: IBS-QOL Overall Score: S241.3.009, 2 mg TID, observed value
# Description: Studies S24 1.3.OO6, S24 1.3.0 1 1, and S24 1.3.009 used the following efficacy measurements: • The subjects answered the following three questions with “yes” or “no” using a phone diary at the end of each week: • a) During the last week, did you experience adequate relief of your IBS symptoms, such as abdominal pain, abdominal discomfort, abnormal bowel habits? • b) During the last week, did you experience adequate relief of your abdominal pain and/or discomfort? • c) During the last week, did you experience adequate relief of your abnormal bowel habits? • The subjects rated the following symptoms using the phone diary at the end of each day: • abdominal pain/discomfort (five-point scale); • stool consistency (seven-point Bristol Stool Scale); • stool frequency (number of bowel movements each day); • urgency (five-point scale); • straining (yes or no); • feeling of incomplete defecation (yes or no); • bloating or feeling of abdominal distension (five-point scale). • In Studies S241 A006 and S241.3.009, subjects completed the IBS-QOL Survey at Baseline (Day 1) and at the end of treatment. In Study S24 1.3.0 1 1, subjects completed the IBS-QOL Survey at Baseline (Day 1), at the end of the three-month treatment period, and at the end of rerandomized treatment.
# Other secondary efficacy parameters for all three studies included: • Responder rate for the weekly diary questions on adequate relief at each month, where a responder for a month (monthly responder) was defined as a subject who answered the weekly question with “yes” at least twice for that month. The responder rate was the percentage of responders within a treatment group. The all-month responder rate for the weekly diary questions on adequate relief was also evaluated, where an all-month responder was defined as a subject who answered the weekly question with “yes” at least twice for each month. The all-month responder rate was the percentage of all-month responders within a treatment group; • Adequate relief rate for the weekly diary questions was calculated for each subject as the number of weekly assessments with adequate relief (“yes”) divided by the total number of weekly assessments; • Percentage of subjects with adequate relief for the weekly diary questions at each week; • Daily diary questions regarding abdominal pain/discomfort (five-point scale), stool consistency (seven-point scale), stool frequency (number of bowel movements each day), straining (yes or no), urgency (five-point scale), feeling of incomplete evacuation (yes or no), and bloating or feeling of abdominal distention (five-point scale); • QOL data assessed by the IBS-QOL questionnaire; and • Question to determine the interruption of activities.
# The IBS-QOL is presented for the ITT population in FIG. 84 (change from Baseline). The IBS-QOL questionnaire was completed only in countries for which there was a validated translation available.
# clinical [4] = details: both, human, in vivo, 2 mg
# Method: The effect of renal impairment on the pharmacokinetics of cilansetron was evaluated in a study excluding subjects with end-stage renal disease, and utilizing a single-center, open-label, multiple-dose, parallel group study in 13 male and 9 female subjects, aged 33-74 years. […] Healthy subjects were matched to renally-impaired subjects with respect to age, weight, gender, and smoking status. All subjects received oral cilansetron 2 mg TID on Days 1 to 5, and a single dose on the morning of Day 6. Blood samples for measurement of plasma pharmacokinetics of cilansetron and its 4-hydroxy metabolites were collected up to 24 hours following dosing on Day 6, and log-transformed pharmacokinetic parameters for these analytes were statistically compared between study groups. Serum concentrations of unbound cilansetron and its 4-hydroxy metabolites were also measured prior to dosing and at 1 and 1.5 hours postdose on Day 6.
smiles,measurement,setting,value
"Cc1nccn1C[C@H]1CCc2c(c3cccc4c3n2CCC4)C1=O [Cilansetron, (R)-(−)-4,5,6,8,9,10-hexahydro-10-[(2-methyl-1H-imidazol-1-yl)methyl]-11H-pyrido-[3,2,1-jk]-carbazol-11-one]",CYP3A4 mRNA induction,CYP3A4,did not induce
same,clearance,clinical [1],550 to 800 mL/min
same,DN-AUC(0-inf) ratio 8 mg/4 mg,clinical [1]; male,121%
same,DN-AUC(0-inf) ratio 16 mg/4 mg,clinical [1]; male,124%
same,DN-AUC(0-inf) ratio 16 mg/8 mg,clinical [1]; male,102%
same,DN-AUC(0-last) ratio 8 mg/4 mg,clinical [1]; male,123%
same,DN-AUC(0-last) ratio 16 mg/4 mg,clinical [1]; male,126%
same,DN-AUC(0-last) ratio 16 mg/8 mg,clinical [1]; male,102%
same,Renal elimination,clinical [1]; male,< 1 % of dose
same,clearance,clinical [1]; male,550 to 700 mL/min
same,half-life,clinical [1]; male,1.4 to 1.7 h
same,AUC(0-inf),"clinical [1]; male, 4 mg",103 ng·h/mL
same,AUC(0-t),"clinical [1]; male, 4 mg",100 ng·h/mL
same,CL renal,"clinical [1]; male, 4 mg",2.95 mL/min
same,Vd,"clinical [1]; male, 4 mg",99 L
same,clearance,"clinical [1]; male, 4 mg",680 mL/min
same,half-life,"clinical [1]; male, 4 mg",1.7 h
same,AUC(0-inf),"clinical [1]; male, 8 mg",254 ng·h/mL
same,AUC(0-t),"clinical [1]; male, 8 mg",251 ng·h/mL
same,CL renal,"clinical [1]; male, 8 mg",2.64 mL/min
same,Vd,"clinical [1]; male, 8 mg",78 L
same,clearance,"clinical [1]; male, 8 mg",567 mL/min
same,half-life,"clinical [1]; male, 8 mg",1.62 h
same,AUC(0-inf),"clinical [1]; male, 16 mg",525 ng·h/mL
same,AUC(0-t),"clinical [1]; male, 16 mg",518 ng·h/mL
same,CL renal,"clinical [1]; male, 16 mg",2.65 mL/min
same,Vd,"clinical [1]; male, 16 mg",68 L
same,clearance,"clinical [1]; male, 16 mg",564 mL/min
same,half-life,"clinical [1]; male, 16 mg",1.41 h
same,Responder rate higher than placebo,[2]; 1 mg TID,11%
same,Responder rate better than placebo,[2]; 2 mg TID,22%
same,Responder rate higher than placebo,[2]; 4 mg TID,8%
same,Responder rate higher than placebo,[2]; 16 mg TID,18%
same,"Subjects worsened from Baseline, IBS-QOL Overall Score",[3]; Month 6,5%
same,Percentage of Subjects Who Worsened from Baseline: IBS-QOL Overall Score,[3]; Endpoint (last post-Baseline overall score),5%
same,Percentage of Subjects Who Worsened from Baseline: IBS-QOL Overall Score,[3]; Month 6,5%
same,"IBS-QOL body image, treatment difference",[3]; vs placebo,5.04
same,"IBS-QOL dysphoria, treatment difference",[3]; vs placebo,8.78
same,"IBS-QOL food avoidance, treatment difference",[3]; vs placebo,10.09
same,"IBS-QOL health worry, treatment difference",[3]; vs placebo,5.41
same,"IBS-QOL interference with activity, treatment difference",[3]; vs placebo,10.85
same,"IBS-QOL overall score, treatment difference in mean change from Baseline at Endpoint",[3]; vs placebo,7.90
same,"IBS-QOL relationships, treatment difference",[3]; vs placebo,5.66
same,"IBS-QOL sexual, treatment difference",[3]; vs placebo,2.93
same,"IBS-QOL social reaction, treatment difference",[3]; vs placebo,8.70
same,Tmax,clinical [4]; Tmax,1 h
same,half-life,clinical [4]; T½,2.85 h
